Columns and labels:
[1] = Exposure of dry cake to humidity, solid form checked by XRPD; assay type: physicochemical; details: for XRPD pattern, dry cake exposed to humidity: monofumarate solids exposed to humidity (90% RH/30° C.)
[2] = Dynamic Vapor Sorption (DVS); assay type: physicochemical; details: 25° C., 75% RH
Procedure: Dynamic Vapor Sorption (DVS) was performed using a Q5000SA. The sample (5-15 mg) was loaded into a metallic quartz sample pan, suspended from a microbalance, and exposed to a humidified stream of nitrogen gas. Weight changes were relative to a matching empty reference pan opposite the sample, suspended from the microbalance. The sample was held for a minimum of 10 min at each level and only progressed to the next humidity level if there was <0.002% change in weight between measurements (interval: 5 s) or 45 min had elapsed (for 5-65% RH) or 2 h had elapsed (for 80 and 95% RH). The following programs were used: • 1—Equilibration at 50% RH • 2—50% to 5%. (50%, 35%, 20%, and 5%) • 3—5% to 95%(5%, 20%, 35%, 50%, 65%, 80%, and 95%) • 4—95% to 5%(95%, 80%, 65%, 50%, 35%, 20%, and 5%) • 5—5% to 50% (5%, 20%, 35%, and 50%) • 1—Equilibration at 50% RH • 2—50% to 2%. (50%, 40%, 30%, 20%, 10%, and 2%) • 3—2% to 75%(2%, 10%, 20%, 30%, 40%, 50%, 60%, 70% and 75%) • 4—75% to 2%(75%, 70%, 60%, 50%, 40%, 30%, 20%, 10% and 2%) • 5—2% to 50% (2%, 10%, 20%, 30%, 40% and 50%) • 1—Equilibration at 50% RH • 2—50% to 2%.(50%, 40%, 30%, 20%, 10%, and 2%) • 3—2% to 65% (2%, 10%, 20%, 30%, 40%, 50%, 60% and 65%) • 4—65% to 2% (65%, 60%, 50%, 40%, 30%, 20%, 10% and 2%) • 5—2% to 50% (2%, 10%, 20%, 30%, 40% and 50%). […]

CCN(C)CCc1c[nH]c2ccc(F)cc12.CCN(C)CCc1c[nH]c2ccc(F)cc12.O=C(O)/C=C/C(=O)O [hemifumarate Form 1, N-ethyl-2-(5-fluoro-1H-indol-3-yl)-N-methylethan-1-amine hemifumarate Form 1]
XRPD pattern, Humid ([1]; hemifumarate dry cake from EtOH:MTBE (1:1 vol.) exposed to humidity): deliquescent

CCN(C)CCc1c[nH]c2ccc(F)cc12.Cl [hydrochloride Form 1, N-ethyl-2-(5-fluoro-1H-indol-3-yl)-N-methylethan-1-amine hydrochloride Form 1]
DVS isotherm, equilibration behaviour [2]: did not reach equilibrium at 75% RH

CCN(C)CCc1c[nH]c2ccc(F)cc12.O=C(O)/C=C/C(=O)O [monofumarate Form 1, N-ethyl-2-(5-fluoro-1H-indol-3-yl)-N-methylethan-1-amine monofumarate Form 1]
XRPD pattern, dry cake exposed to humidity [1]: Form 1

CCN(C)CCc1c[nH]c2ccc(F)cc12.O=C(O)/C=C/C(=O)O [monofumarate Form 2, N-ethyl-2-(5-fluoro-1H-indol-3-yl)-N-methylethan-1-amine monofumarate Form 2]
XRPD pattern, dry cake exposed to humidity [1]: slowly converted to Form 1

— patent publication US12157722B1, “Crystalline hydrochloride salts of N-ethyl-2-(5-fluoro-1H-indol-3-yl)-N-methylethan-1-amine” (Gilgamesh Pharmaceuticals, Inc., priority 2023, dated 2024)
